Laboratory results published in patent US20260306642A1, “STAT DEGRADERS AND USES THEREOF” (Recludix Pharma, Inc., priority 2023, published 2026).

Key:
STAT3 = molecular target: T1, STAT3 (Homo sapiens, UniProt P40763); experiment: STAT3 Fluorescence Polarization (FP) Assay; assay type: binding
T1 construct: Recombinant STAT3 protein (STAT3(G127-I722))
In short: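 Recombinant STAT3 (G127–I722, 25 nM) was mixed with 2 nM 5-FAM-GpYLPQTV-NH2 probe in HEPES pH 7.4 buffer with 1% DMSO and serially diluted compound. Fluorescence polarization was read after 45 min at room temperature. IC50 came from nonlinear regression of mP versus log concentration and was binned A (≤100 nM), B (>100–1000 nM), C (>1–10 μM) or D (>10 μM).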

pSTAT6 = molecular target: T2, pSTAT6 (Homo sapiens, UniProt P42226); experiment: MSD-pSTAT-PBMC Assay (pSTAT6, IL-4 stimulated); assay type: cell-based; details: compound 3 hrs, then 1 ng/mL IL-4 10 min, pY641-STAT6, read-out: pSTAT6 IC50
T2 sequence (P42226 1-847): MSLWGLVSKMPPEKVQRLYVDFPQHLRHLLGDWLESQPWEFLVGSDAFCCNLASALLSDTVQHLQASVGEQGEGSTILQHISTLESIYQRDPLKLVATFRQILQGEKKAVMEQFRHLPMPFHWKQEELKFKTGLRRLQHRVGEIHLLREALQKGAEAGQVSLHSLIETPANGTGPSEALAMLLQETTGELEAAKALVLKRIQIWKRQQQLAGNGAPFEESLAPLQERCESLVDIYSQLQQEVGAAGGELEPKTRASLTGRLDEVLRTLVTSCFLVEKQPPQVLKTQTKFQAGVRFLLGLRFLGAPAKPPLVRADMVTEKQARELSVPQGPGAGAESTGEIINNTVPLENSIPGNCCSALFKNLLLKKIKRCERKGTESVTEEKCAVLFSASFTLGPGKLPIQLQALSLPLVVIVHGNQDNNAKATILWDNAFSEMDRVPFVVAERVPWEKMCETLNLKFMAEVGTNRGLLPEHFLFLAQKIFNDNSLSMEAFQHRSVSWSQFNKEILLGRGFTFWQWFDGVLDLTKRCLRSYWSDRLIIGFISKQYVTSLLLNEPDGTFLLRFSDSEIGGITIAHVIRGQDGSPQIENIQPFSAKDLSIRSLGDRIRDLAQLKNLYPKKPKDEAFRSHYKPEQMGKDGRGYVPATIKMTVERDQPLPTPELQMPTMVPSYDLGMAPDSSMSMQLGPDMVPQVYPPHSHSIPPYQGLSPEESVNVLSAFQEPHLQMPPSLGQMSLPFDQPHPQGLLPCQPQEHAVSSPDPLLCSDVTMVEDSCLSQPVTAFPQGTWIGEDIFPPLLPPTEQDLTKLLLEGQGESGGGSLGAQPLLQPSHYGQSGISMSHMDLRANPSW
Excerpt: Cryopreserved Peripheral Blood Mononuclear Cells (PBMC) are from AllCells. Recombinant Human IL-4 and IL-6 are from Peprotech. Mouse monoclonal anti-STAT3 antibody, rabbit monoclonal anti-pY705-STAT3 antibody, rabbit monoclonal Anti-pY641-STAT6 antibody, and lysis buffer are from Cell Signaling Technology (CST). Mouse monoclonal anti-STAT6 antibody is from BioLegend. Assay plates, blocker, and anti-rabbit secondary antibody are from Meso Scale Discovery (MSD).
Cryopreserved PBMCs were thawed out and allowed to recover overnight in IMDM+10% heat-inactivated FBS prior to plating 50,000 (STAT3) or 25,000 (STAT6) cells per well in 96-well U-bottom tissue culture plates. Cells were treated with compound for 3 hrs, then stimulated with 10 ng/mL IL-6 (STAT3) or 1 ng/mL IL-4 (STAT6) for 10 min. Cells were then spun down and washed with ice-cold PBS prior to lysing the cell pellet with 1× lysis buffer (CST) with 1× HALT protease and phosphatase inhibitor cocktail (Thermo). Lysates were transferred to and incubated overnight at 4° C. with shaking in QuickPlex 96-well high bind assay plates (MSD) pre-coated overnight with 30 μL per well of […] mouse monoclonal anti-STAT3 antibody (STAT3) or 2 μg/mL mouse monoclonal anti-STAT6 antibody (STAT6) in 1× PBS, and pre-blocked for 1 hour with 3% Blocker-A (MSD). Captured protein in the assay plates were then washed and probed with 25 μL per well of […] rabbit monoclonal anti-pY705-STAT3 antibody (STAT3) or […] rabbit monoclonal Anti-pY641-STAT6 antibody (STAT6) in 1% Blocker-A for 1 hour at room temperature with shaking, then washed and probed with 25 ul per well of 1 ug/ml Sulfo-TAG Labeled Goat Anti-Rabbit Antibody (MSD) in 1% Blocker-A for 1 hour at room temperature with shaking. Assay plates were then washed and 150 μL of 1× Read Buffer-T (MSD) was added to each well prior to reading on an SQ120 MSD Plate Reader. Assay signal from each sample was subtracted by the signal from unstimulated control wells and normalized to DMSO control wells. IC50 values were calculated using Graph Pad Prism Dose-Response Nonlinear Regression with variable slope. For both pSTAT3 and pSTAT6 A=≤100 nM; B=>100-1000 nM; C=>1000-3000 nM; and D=>3 μM.

STAT6 = molecular target: T3, STAT6 (Homo sapiens, UniProt P42226); experiment: STAT6 Fluorescence Polarization (FP) Assay; assay type: binding
T3 construct: Recombinant STAT6 protein (STAT6(W123-T658))
T3 sequence (P42226 123-658): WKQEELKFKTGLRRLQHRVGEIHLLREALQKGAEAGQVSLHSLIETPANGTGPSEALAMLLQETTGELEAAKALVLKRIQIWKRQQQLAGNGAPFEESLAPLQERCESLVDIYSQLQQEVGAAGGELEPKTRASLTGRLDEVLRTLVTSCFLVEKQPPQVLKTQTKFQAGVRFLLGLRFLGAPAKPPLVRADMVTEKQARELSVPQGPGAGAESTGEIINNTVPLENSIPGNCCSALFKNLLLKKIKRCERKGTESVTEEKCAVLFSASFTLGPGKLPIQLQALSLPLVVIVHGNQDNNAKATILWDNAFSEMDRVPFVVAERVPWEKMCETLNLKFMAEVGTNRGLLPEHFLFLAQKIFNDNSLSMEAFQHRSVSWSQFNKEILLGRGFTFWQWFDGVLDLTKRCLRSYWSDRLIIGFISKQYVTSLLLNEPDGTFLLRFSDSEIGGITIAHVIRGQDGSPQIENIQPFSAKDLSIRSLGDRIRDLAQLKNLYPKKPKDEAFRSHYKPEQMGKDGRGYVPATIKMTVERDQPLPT
In short: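 STAT6(W123-T658) at 250 nM with 2 nM 5-FAM-ApYKPFQDLI-NH2 probe in HEPES pH 7.4, 50 mM NaCl, EDTA, Tween 20, DTT, 1% DMSO. FP read after 45 min at room temperature; IC50 from nonlinear fit of mP versus log concentration.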

T1 sequence (P40763 127-722): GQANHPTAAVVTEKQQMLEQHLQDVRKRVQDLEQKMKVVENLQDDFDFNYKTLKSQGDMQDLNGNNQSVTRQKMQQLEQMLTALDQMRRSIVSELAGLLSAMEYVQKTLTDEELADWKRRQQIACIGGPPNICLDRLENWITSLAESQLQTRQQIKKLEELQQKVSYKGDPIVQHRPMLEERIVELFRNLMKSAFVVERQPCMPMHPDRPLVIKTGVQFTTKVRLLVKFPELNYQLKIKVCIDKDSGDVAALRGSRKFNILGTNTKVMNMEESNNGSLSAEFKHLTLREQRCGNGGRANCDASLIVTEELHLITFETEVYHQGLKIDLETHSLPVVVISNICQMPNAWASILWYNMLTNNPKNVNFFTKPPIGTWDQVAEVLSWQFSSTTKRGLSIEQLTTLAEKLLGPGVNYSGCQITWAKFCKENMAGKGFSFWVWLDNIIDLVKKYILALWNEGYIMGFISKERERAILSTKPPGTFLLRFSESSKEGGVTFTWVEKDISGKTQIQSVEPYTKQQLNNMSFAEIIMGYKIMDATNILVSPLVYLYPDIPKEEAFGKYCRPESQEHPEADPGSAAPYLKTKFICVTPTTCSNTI

SMILES	IC50 (STAT3) [nM]	IC50 (pSTAT6) [nM]	IC50 (STAT6) [nM]
O=C1CCC(c2ccc(OCCCCCn3ccc([C@@H]4CN(C(=O)[C@@H]5CC[C@@H]6CCCC[C@H](NC(=O)c7cc8cc(C(F)(F)P(=O)(O)O)ccc8s7)C(=O)N65)C5(CC5)C4)cc3=O)cc2)C(=O)N1 (stereo partly drawn) [Compound 17, ((2-(((3S,6S,10aS)-3-((6R)-6-(1-(5-(4-(2,6-dioxopiperidin-3-yl)phenoxy)pentyl)-2-oxo-1,2-dihydropyridin-4-yl)-4-azaspiro[2.4]heptane-4-carbonyl)-5-oxodecahydropyrrolo[1,2-a]azocin-6-yl)carbamoyl)benzo[b]thiophen-5-yl)difluoromethyl)phosphonic acid]	1000 to 10000	1000 to 3000	< 300
N#CC1CN(C(=O)C2CCC3CCCCC(NC(=O)c4cc5cc(C(F)(F)P(=O)(O)O)ccc5s4)C(=O)N32)CC1c1cccc(N2CCN(c3ccc4c(c3)[nH]c(=O)n4C3CCC(=O)NC3=O)CC2)c1 [Compound 22, ((2-(((3S,6S,10aS)-3-((rel-3S,4R)-3-cyano-4-(3-(4-(1-(2,6-dioxopiperidin-3-yl)-2-oxo-2,3-dihydro-1H-benzo[d]imidazol-5-yl)piperazin-1-yl)phenyl)pyrrolidine-1-carbonyl)-5-oxodecahydropyrrolo[1,2-a]azocin-6-yl)carbamoyl)benzo[b]thiophen-5-yl)difluoromethyl)phosphonic acid]	100 to 1000	1000 to 3000	< 300
N#CC1CN(C(=O)C2CCC3CCCCC(NC(=O)c4cc5cc(C(F)(F)P(=O)(O)O)ccc5s4)C(=O)N32)CC1c1cccc(OCCCCCC#Cc2cccc3c2CN(C2CCC(=O)NC2=O)C3=O)c1 [Compound 13, ((2-(((3S,6S,10aS)-3-((rel-3S,4R)-3-cyano-4-(3-((7-(2-(2,6-dioxopiperidin-3-yl)-1-oxoisoindolin-4-yl)hept-6-yn-1-yl)oxy)phenyl)pyrrolidine-1-carbonyl)-5-oxodecahydropyrrolo[1,2-a]azocin-6-yl)carbamoyl)benzo[b]thiophen-5-yl)difluoromethyl)phosphonic acid]	100 to 1000	> 3000	< 300
O=C1CCC(N2Cc3c(OCCOCCOCCn4ccc([C@@H]5CN(C(=O)[C@@H]6CC[C@@H]7CCCC[C@H](NC(=O)c8cc9cc(C(F)(F)P(=O)(O)O)ccc9s8)C(=O)N76)C6(CC6)C5)cc4=O)cccc3C2=O)C(=O)N1 (stereo partly drawn) [Compound 27, ((2-(((3S,6S,10aS)-3-((6R)-6-(1-(2-(2-(2-((2-(2,6-dioxopiperidin-3-yl)-1-oxoisoindolin-4-yl)oxy)ethoxy)ethoxy)ethyl)-2-oxo-1,2-dihydropyridin-4-yl)-4-azaspiro[2.4]heptane-4-carbonyl)-5-oxodecahydropyrrolo[1,2-a]azocin-6-yl)carbamoyl)benzo[b]thiophen-5-yl)difluoromethyl)phosphonic acid]	1000 to 10000	> 3000	300 to 3000
O=C1CCC(n2c(=O)[nH]c3cc(N4CCC(n5ccc([C@@H]6CN(C(=O)[C@@H]7CC[C@@H]8CCCC[C@H](NC(=O)c9cc%10cc(C(F)(F)P(=O)(O)O)ccc%10s9)C(=O)N87)C7(CC7)C6)cc5=O)CC4)ccc32)C(=O)N1 (stereo partly drawn) [Compound 24, ((2-(((3S,6S,10aS)-3-((6R)-6-(1-(1-(1-(2,6-dioxopiperidin-3-yl)-2-oxo-2,3-dihydro-1H-benzo[d]imidazol-5-yl)piperidin-4-yl)-2-oxo-1,2-dihydropyridin-4-yl)-4-azaspiro[2.4]heptane-4-carbonyl)-5-oxodecahydropyrrolo[1,2-a]azocin-6-yl)carbamoyl)benzo[b]thiophen-5-yl)difluoromethyl)phosphonic acid]	1000 to 10000	> 3000	300 to 3000
O=C1CCC(N2Cc3c(C#CCCCCCCn4ccc([C@@H]5CN(C(=O)[C@@H]6CC[C@@H]7CCCC[C@H](NC(=O)c8cc9cc(C(F)(F)P(=O)(O)O)ccc9s8)C(=O)N76)C6(CC6)C5)cc4=O)cccc3C2=O)C(=O)N1 (stereo partly drawn) [Compound 5, ((2-(((3S,6S,10aS)-3-((6R)-6-(1-(8-(2-(2,6-dioxopiperidin-3-yl)-1-oxoisoindolin-4-yl)oct-7-yn-1-yl)-2-oxo-1,2-dihydropyridin-4-yl)-4-azaspiro[2.4]heptane-4-carbonyl)-5 oxodecahydropyrrolo[1,2-a]azocin-6-yl)carbamoyl)benzo[b]thiophen-5-yl)difluoromethyl)phosphonic acid]	1000 to 10000	100 to 1000	300 to 3000
